Assay results from patent publication US20250387494A1, “Prodrugs Based On Tumor Targeting Near Infrared Dye-Drug Conjugates (DDC)” (Lahjavida, Inc., priority 2022, published 2025).

Legend:
SW620 tumor [1] = assay: Tumor growth inhibition, intratumor injection; format: in vivo, mice; conditions: for Tumor increase rate: intratumor 15 mg/kg; for Tumor size / tumor growth rate: intratumor injection 15 mg/kg
Description: (§1) Thirty-nine (39) female athymic nude mice were injected subcutaneously with 10×10^6 SW620 cells in 0.1 ml PBS with 20% Matrigel on the right flank. When the tumor size reaches within the range of approximately ˜70-200 mm^3, mice were sorted as day 0. Thirty (30) mice were randomized into five (5) groups of six (6) mice per group and dosed singly (I.V.) with the test articles or the vehicle control (This day is Day 1: treatment starts). Administrations of Vehicle (saline), NIR dye (“Dye3” in Table 2), Irinotecan, NIR dye-linker-SN38 (XV), and NIR dye-linker Doxo (XVI) are described in Table 6. Before treatment starts/randomization of mice, the 6 mice whose tumors were getting within the range first were used to determine the maximum tolerated dose (MTD) or dose level of two articles NIR day-linker-SN38 (XV), and NIR dye-linker Doxo (XVI), 3 mice for each.
(§2) Tumor size will be assessed daily, and once noticed palpably, the tumor measurements/body weight started daily up to the randomization day, and before randomization, to get 6 mice as mentioned above for the MTD study, and NIR imaging. After randomization, tumor size and body weight were assessed three times a week (M, W, F) for the duration of the study. Monitoring: a), Record BW on M, W, and F; b). Record signs of distress daily; c). Record tumor size M, W, F; d). In vivo NIR imaging (Group 1, 2, 4, and 5): Ex: 780 nm, Em: 810 nm, on day 1:0.5 hr, 2 hr, 4 hr, 8 hr post day 1 dosing, then 24 hr (day 2), then in vivo imaging, every M, W, and F, until the study ended on day 35.
(§3) The mice were injected with the said compounds either via intravenous tail injection or with intratumor injection for. Two studies were carried out: one was the compounds uptake study by the tumor as judged by the NIR imaging of both the whole mice body (FIGS. 10A, 10B, 11A, and 11B) and of the mice organs (FIGS. 12A, 12B, 13A, 13B, 14A and 14B). The injection method for these study was via intravenous tail injection. The second was the efficacy evaluation of these compounds as judged by their tumor growth inhibition, the injection method for these study was via both intravenous tail injection and intratumor injection.

[2] = test system: 2D lung cancer cell line (A549); assay: Compound uptake study by NIR mean intensity; format: cell-based; conditions: 5 μM, compared with control dyes Dye 1 and Dye 2, all time points
Description: The tumor cells were seeded in a chamber and incubated for 24 h at 37° C. under 5% CO2. After removal of medium, cells were treated with the test materials at 5 μM concentration. When reaching the time points, cells were washed with PBS three times, then fluorescent images were taken under a fluorescent microscope.
(§4) The tumor-targeting ability and therapeutic efficacy of a four additional DDC prodrugs together with the controls of two corresponding NIR dyes, as well as two chemotherapeutic drugs were explored (Table 6) in 2D lung cancer cell line (A549) studies.
(§5) The cell lines were dosed with 5 μM of said compounds. Two studies were carried out: one was the compounds uptake study by the tumor cell line as judged by both the NIR intensity mean (FIG. 6) and by nuclei counts (FIG. 7) per well over time.

SW620 tumor [3] = assay: Tumor growth inhibition, intravenous tail injection; format: in vivo, mice; parameters: key to Tumor size: tumor size in mm^3; conditions: for Tumor size: i.v. 10 mg/kg, second dose 15 mg/kg on Day 11; for Tumor increase rate: i.v.; for tumor growth rate: intravenous
Description: as §1, §2, §3

SW620 tumor [4] = assay: In vivo NIR fluorescent imaging of whole body and organs; conditions: for tumor accumulation, whole body NIR imaging: intravenous tail injection, 11 days after second dosing at 15 mg/kg; for tumor accumulation, whole body NIR imaging / NIR fluorescent signal in tumor (organ imaging) / NIR signal (organ imaging): 10 s exposure
Description: as §1, §2
Mice were euthanized on day 35 or mice will be sacrificed when tumor size was more than 2000 mm^3. On termination day, NIR imaging of various organs of 3 mice (if the remaining mice >3) from each group 1, 2, 4 and 5. For each mouse: the tumor, heart, liver, spleen, lungs, kidneys, and brain are imaged at the same time.
as §3

[5] = test system: 2D lung cancer cell line (A549); assay: Compound uptake/toxicity study by nuclei counts; format: cell-based; conditions: 5 μM, over all the time points
Description: Cell viability assay was measured using Cell Titer-Glo luminescent cell ability kit via two parameters: Hoechst nuclei counts via imaging, and 2D Celltiter-glo measuring ATP content from live cells. IC50 values were calculated with a 4-variable curve analysis.
as §4, §5

[6] = Day 4 vs Day 1 (cell stands under Day 1)
[7] = Day 6 vs Day 4 (cell stands under Day 4)
[8] = Day 8 vs Day 6 (cell stands under Day 6)
[9] = Day 11 vs Day 8 (cell stands under Day 8)
[10] = Day 13 vs Day 11 (cell stands under Day 11)
[11] = Day 15 vs Day 13 (cell stands under Day 13)
[12] = Day 18 vs Day 15 (cell stands under Day 15)
[13] = Day 20 vs Day 18 (cell stands under Day 18)

In the case of CCCCN1/C(=C/C=C2\CCCC(/C=C/C3=[N+](CCCCS(=O)(=O)[O-])c4ccccc4C3(C)C)=C2SCCC(=O)NCCC(=O)N2Cc3ccccc3-c3nnn(CCOCCOCCOCCOCCOCCOCCOCCOCCNC(=O)COCC(=O)N[C@H](C(=O)N[C@@H](CCCNC(N)=O)C(=O)Nc4ccc(COC(=O)Oc5ccc6nc7c(c(CC)c6c5)Cn5c-7cc6c(c5=O)COC(=O)[C@]6(O)CC)cc4)C(C)C)c3-c3ccccc32)C(C)(C)c2ccccc21 [Compound XV, Dye1-PEG8-Val-Cit-PABA-SN-38], the Tumor increase rate (SW620 tumor [1]; [6]) is reported as 44%, the Tumor increase rate (SW620 tumor [1]; [7]) is reported as 55% and the Tumor increase rate (SW620 tumor [1]; [8]) is reported as 118%. It also gave a Tumor increase rate (SW620 tumor [1]; [9]) of 25%, a Tumor increase rate (SW620 tumor [1]; [10]) of 12.7% and a Tumor increase rate (SW620 tumor [1]; [11]) of 7%. The Tumor increase rate (SW620 tumor [1]; [12]) was 3.8%, the Tumor increase rate (SW620 tumor [1]; [13]) was 8.3% and the Tumor size (SW620 tumor [1]; Day 1) was 163.7 mm^3. It also gave a Tumor size (SW620 tumor [1]; Day 4) of 235.4 mm^3, a Tumor size (SW620 tumor [1]; Day 6) of 364.9 mm^3 and a Tumor size (SW620 tumor [1]; Day 8) of 794.5 mm^3. For the same compound, the Tumor size (SW620 tumor [1]; Day 11) was 988.8 mm^3, the Tumor size (SW620 tumor [1]; Day 13) was 11114.9 mm^3 and the Tumor size (SW620 tumor [1]; Day 15) was 1193.3 mm^3. It also gave a Tumor size (SW620 tumor [1]; Day 18) of 1239.1 mm^3, a Tumor size (SW620 tumor [1]; Day 20) of 1342.1 mm^3 and a tumor growth rate (SW620 tumor [1]; as low as) of 1%. For the same compound, the tumor growth rate (SW620 tumor [1]; initial) was 63%, the “uptake by NIR Mean Intensity” value [2] was “taken up well” and the Tumor size (SW620 tumor [3]; Day 1) was 163.7. For the same compound, the Tumor size (SW620 tumor [3]; Day 4) was 235.4, the Tumor size (SW620 tumor [3]; Day 6) was 364.9 and the Tumor size (SW620 tumor [3]; Day 8) was 794.5. The Tumor size (SW620 tumor [3]; Day 11) was 988.8, the Tumor size (SW620 tumor [3]; Day 13) was 11114.9 and the Tumor size (SW620 tumor [3]; Day 15) was 1193.3. The Tumor size (SW620 tumor [3]; Day 18) was 1239.1, the Tumor size (SW620 tumor [3]; Day 20) was 1342.1 and the Tumor increase rate (SW620 tumor [3]; [6]) was 44%. For the same compound, the Tumor increase rate (SW620 tumor [3]; [7]) was 55%, the Tumor increase rate (SW620 tumor [3]; [8]) was 118% and the Tumor increase rate (SW620 tumor [3]; [9]) was 25%. The Tumor increase rate (SW620 tumor [3]; [10]) was 12.7%, the Tumor increase rate (SW620 tumor [3]; [11]) was 7% and the Tumor increase rate (SW620 tumor [3]; [12]) was 3.8%. It also gave a Tumor increase rate (SW620 tumor [3]; [13]) of 8.3%, a tumor growth rate (SW620 tumor [3]; after the second dose (15 mg/kg, Day 11), low) of 4% and a tumor growth rate (SW620 tumor [3]; before the second dose) of 63%. The “tumor accumulation, whole body NIR imaging” value (SW620 tumor [4]) was “accumulate selectively in the tumor sites” and the “organ NIR fluorescent signal” value (SW620 tumor [4]; second dose 15 mg/kg, 24 hr after intravenous tail injection, auto exposure) was “the tumor showed the strongest NIR fluorescent signal among all the organs”.
Compound CCCCN1/C(=C/C=C2\CCCC(/C=C/C3=[N+](CCCCS(=O)(=O)[O-])c4ccccc4C3(C)C)=C2SCCC(=O)NCCC(=O)N2Cc3ccccc3-c3nnn(CCOCCOCCOCCOCCOCCOCCOCCOCCNC(=O)COCC(=O)N[C@H](C(=O)N[C@@H](CCCNC(N)=O)C(=O)Nc4ccc(COC(=O)N[C@@H]5CC(O[C@@H]6C[C@@](O)(C(=O)CO)Cc7c(O)c8c(c(O)c76)C(=O)c6c(OC)cccc6C8=O)O[C@H](C)[C@H]5O)cc4)C(C)C)c3-c3ccccc32)C(C)(C)c2ccccc21 (stereo partly drawn) [Compound XVI, Dye1-PEG8-Val-Cit-PABA-Doxorubicin] has a Tumor increase rate (SW620 tumor [1]; Day 3 vs Day 1 (cell stands under Day 1)) of 63%, a Tumor increase rate (SW620 tumor [1]; Day 5 vs Day 3 (cell stands under Day 3)) of 1.1% and a Tumor increase rate (SW620 tumor [1]; Day 8 vs Day 5 (cell stands under Day 5)) of 2.4%. It also gave a Tumor increase rate (SW620 tumor [1]; Day 10 vs Day 8 (cell stands under Day 8)) of 5.5%, a Tumor size (SW620 tumor [1]; Day 1 (Table 10 schedule)) of 855.4 mm^3 and a Tumor size (SW620 tumor [1]; Day 3) of 1393.5 mm^3. For the same compound, the Tumor size (SW620 tumor [1]; Day 5) was 1409 mm^3, the Tumor size (SW620 tumor [1]; Day 8 (Table 10 schedule)) was 1443 mm^3 and the Tumor size (SW620 tumor [1]; Day 10) was 1523.7 mm^3. The tumor growth rate (SW620 tumor [1]; as low as) was 0.4%, the tumor growth rate (SW620 tumor [1]; initial) was 24% and the “uptake by NIR Mean Intensity” value [2] was “taken up well”. The “NIR fluorescent signal in tumor (organ imaging)” value (SW620 tumor [4]; first dose 10 mg/kg, day 17 after intravenous tail injection) was “strong NIR fluorescent signals”, the “tumor accumulation, whole body NIR imaging” value (SW620 tumor [4]) was “accumulate selectively in the tumor sites” and the “NIR fluorescent signal in tumor (organ imaging)” value (SW620 tumor [4]; second dose 15 mg/kg, day 7 after intravenous tail injection, versus first dose day 17) was “more intense”.
With CCCCN1/C(=C/C=C2\CCCC(/C=C/C3=[N+](CCCCS(=O)(=O)[O-])c4ccccc4C3(C)C)=C2SCCC(=O)O)C(C)(C)c2ccccc21 [Dye 1] the “toxicity by Nuclei Counts” value [5] was “not toxic”, the “NIR signal (organ imaging)” value (SW620 tumor [4]; first dose 4.37 mg/kg, day 17 after intravenous tail injection) was “no NIR signals” and the “NIR signal (organ imaging)” value (SW620 tumor [4]; second dose 4.37 mg/kg, day 7 after intravenous tail injection) was “strong NIR signals”.
In the case of COC(=O)CCSC1=C(/C=C/C2=[N+](CCCCS(=O)(=O)[O-])c3ccccc3C2(C)C)CCC/C1=C\C=C1\N(CCCCCC(=O)O)c2ccccc2C1(C)C [Dye 2], the “toxicity by Nuclei Counts” value [5] is reported as “not toxic”.
